Consider 29 molecules from patent US7989482B2, “Indoline anti-cancer agents” (Joyant Pharmaceuticals, Inc., priority 2008, dated 2011).

By IC50 is commonly meant the concentration that gives 50% inhibition.

Where two headings read alike, the source gives them in different places.

The test system of assay [1] is U937 cells. The assay is described as follows: Cell viability assay (CELL-TITER-GLO) in U937 cells. The settings on record: U937 cells, 48 hour treatment, cell viability, read-out: IC50 (μM) U937. The assay is classed as cell-based. The protocol: (§1) Cell viability assays were run using standard protocols known to those of skill in art. Cells were plated in 96 well plates at the density of 3,000-10,000 cells per well. Twenty four hours later, cells were treated with increasing concentration of test compounds (1 nM to 1 μM). After another 48 hour, cell survival was measured using CELL-TITER-GLO® reagent (Promega) following the protocol provided by the manufacture. The IC50 value was determined as the concentration of test compound that kills 50% of the cell population.
(§2) Cell viability data generated according to the protocol described in Example 97 was generated for representative compounds in A2058 and U937 cells.

The subject of assay [2] is A2058 cells. The assay is described as follows: Cell viability assay (CELL-TITER-GLO) in A2058 cells. The assay is classed as cell-based. The note with it: A2058 cells, 48 hour treatment, cell viability, read-out: IC50 (μM) A2058. The protocol: as §1, §2

With `COC(=O)[C@H](CO)NC(=O)c1nc2oc1C13c4ccccc4N[C@H]1Oc1ccc(cc13)C[C@H](NC(=O)[C@@H](O)C(C)C)C(=O)N[C@H]2C(C)C` (stereo partly shown) [Example 30], the IC50 is more than 1 µM in assay [1] (Homo sapiens, U-937, 48 h) and more than 1 µM in assay [2] (Homo sapiens, A2058, 48 h).
As for `Cc1coc(-c2nc3oc2C24c5ccccc5N[C@H]2Oc2ccc(cc24)C[C@H](NC(=O)[C@@H](O)C(C)C)C(=O)N[C@H]3C(C)C)n1` (stereo partly shown) [Example 79], the IC50 in assay [1] (Homo sapiens, U-937, 48 h) amounted to 0.071 µM; in assay [2] (Homo sapiens, A2058, 48 h) it was 0.174 µM.
The matching figures for `CC(C)[C@H](O)C(=O)N[C@H]1Cc2ccc3c(c2)C2(C4=C(C(=O)N5CCc6ccccc65)N=C(O4)[C@H](C(C)C)NC1=O)c1ccccc1N[C@H]2O3` (stereo partly shown) [Example 26]: more than 1 µM and more than 1 µM.
For `CC(C)[C@H](O)C(=O)N[C@H]1Cc2ccc3c(c2)C2(C4=C(C(=O)N[C@@H]5CCCc6ccccc65)N=C(O4)[C@H](C(C)C)NC1=O)c1ccccc1N[C@H]2O3` (stereo partly shown) [Example 17], the IC50 was more than 1 µM in assay [1] (Homo sapiens, U-937, 48 h) and more than 1 µM in assay [2] (Homo sapiens, A2058, 48 h).
For the molecule `COC(=O)c1nc2oc1C13c4cc(ccc4O[C@@H]1N(S(C)(=O)=O)c1ccccc13)C[C@H](NC(=O)[C@@H](O)C(C)C)C(=O)N[C@H]2C(C)C` (stereo partly shown) [Example 37], the IC50 is more than 1 µM in assay [1] (Homo sapiens, U-937, 48 h) and more than 1 µM in assay [2] (Homo sapiens, A2058, 48 h).
For the molecule `COC(=O)c1nc(-c2nc3oc2C24c5ccccc5N[C@H]2Oc2ccc(cc24)C[C@H](NC(=O)[C@@H](O)C(C)(C)C)C(=O)N[C@H]3C(C)C)oc1C` (stereo partly shown) [Example 68], the IC50 in assay [1] (Homo sapiens, U-937, 48 h) stood at 0.057 µM; in assay [2] (Homo sapiens, A2058, 48 h), 0.066 µM.
The matching figures for `CC(C)[C@H](O)C(=O)N[C@H]1Cc2ccc3c(c2)C2(C4=C(c5nc(C(=O)N6CCCC6)co5)N=C(O4)[C@H](C(C)C)NC1=O)c1ccccc1N[C@H]2O3` (stereo partly shown) [Example 60]: 0.562 µM and 0.636 µM.
Regarding `COC(=O)c1nc2oc1C13c4ccccc4N[C@H]1Oc1ccc(cc13)C[C@H](NC(=O)c1cc(OC)c(OC)c(OC)c1)C(=O)N[C@H]2C(C)C` (stereo partly shown) [Example 10], the IC50 was more than 1 µM in assay [1] (Homo sapiens, U-937, 48 h) and more than 1 µM in assay [2] (Homo sapiens, A2058, 48 h).
Regarding `CCN(CC)C(=O)c1nc2oc1C13c4ccccc4N[C@H]1Oc1ccc(cc13)C[C@H](NC(=O)[C@@H](O)C(C)C)C(=O)N[C@H]2C(C)C` (stereo partly shown) [Example 25], the IC50 in assay [1] (Homo sapiens, U-937, 48 h) is more than 1 µM; in assay [2] (Homo sapiens, A2058, 48 h) it was more than 1 µM.
As to `COC(=O)c1coc(-c2nc3oc2C24c5ccccc5N[C@H]2Oc2ccc(cc24)C[C@H](NC(=O)[C@@H](O)C(C)(C)C)C(=O)N[C@H]3C(C)C)n1` (stereo partly shown) [Example 49], the IC50 in assay [1] turned out to be 0.04 µM; in assay [2] it was 0.049 µM.
Regarding `CC(C)[C@H](O)C(=O)N[C@H]1Cc2ccc3c(c2)[C@]2(C4=C(C(=O)NCCc5c[nH]c6ccccc56)N=C(O4)[C@H](C(C)C)NC1=O)c1ccccc1NC2O3` (stereo partly shown) [Example 11], the IC50 was more than 1 µM in assay [1] (Homo sapiens, U-937, 48 h) and more than 1 µM in assay [2] (Homo sapiens, A2058, 48 h).
As to `COC(=O)c1nc2oc1[C@@]13c4ccccc4NC1Oc1ccc(cc13)CC(NC(=O)OCc1ccccc1)C(=O)N[C@H]2C(C)C` (stereo partly shown) [Example 4], the IC50 in assay [1] (Homo sapiens, U-937) is more than 1 µM; in assay [2] (Homo sapiens), more than 1 µM.
For `CCC(O)(CC)C(=O)N[C@H]1Cc2ccc3c(c2)C2(C4=C(c5nc(C(=O)O)co5)N=C(O4)[C@H](C(C)C)NC1=O)c1ccccc1N[C@H]2O3` (stereo partly shown) [Example 55], the IC50 in assay [1] (Homo sapiens, U-937) was 0.9 µM; in assay [2] (Homo sapiens) it was more than 1 µM.
On to `CCCCCCc1oc(-c2nc3oc2C24c5ccccc5N[C@H]2Oc2ccc(cc24)C[C@H](NC(=O)[C@@H](O)C(C)C)C(=O)N[C@H]3C(C)C)nc1C(=O)OC` (stereo partly shown) [Example 77], for which the IC50 in assay [1] (Homo sapiens, U-937, 48 h) came to 0.018 µM; in assay [2] (Homo sapiens, A2058, 48 h) it was 0.08 µM.
The matching figures for `CC(C)[C@H](O)C(=O)N[C@H]1Cc2ccc3c(c2)C2(C4=C(C(=O)NCC(=O)c5c[nH]c6c(O)cccc56)N=C(O4)[C@H](C(C)C)NC1=O)c1ccccc1N[C@H]2O3` (stereo partly shown) [Example 32]: more than 1 µM and more than 1 µM.
With `CNC(=O)c1nc2oc1C13c4ccccc4N[C@H]1Oc1ccc(cc13)C[C@H](NC(=O)[C@@H](O)C(C)C)C(=O)N[C@H]2C(C)C` (stereo partly shown) [Example 23], the IC50 was more than 1 µM in assay [1] (Homo sapiens, U-937, 48 h) and more than 1 µM in assay [2] (Homo sapiens, A2058, 48 h).
For the molecule `CCOC(=O)c1noc(-c2nc3oc2C24c5ccccc5N[C@H]2Oc2ccc(cc24)C[C@H](NC(=O)[C@@H](O)C(C)C)C(=O)N[C@H]3C(C)C)n1` (stereo partly shown) [Example 88], the IC50 was 0.7 µM in assay [1] (Homo sapiens, U-937, 48 h) and more than 1 µM in assay [2] (Homo sapiens, A2058, 48 h).
The matching figures for `CCC(O)(CC)C(=O)N[C@H]1Cc2ccc3c(c2)C2(C4=C(c5cnco5)N=C(O4)[C@H](C(C)C)NC1=O)c1ccccc1N[C@H]2O3` (stereo partly shown) [Example 84]: 0.315 µM and 0.487 µM.
Turning to `COC(=O)c1coc(-c2nc3oc2C24c5ccccc5N[C@H]2Oc2ccc(cc24)C[C@H](NC(=O)C2(O)CCCCC2)C(=O)N[C@H]3C(C)C)n1` (stereo partly shown) [Example 51], the IC50 in assay [1] (Homo sapiens, U-937, 48 h) stood at 0.04 µM; in assay [2] (Homo sapiens, A2058, 48 h), 0.056 µM.
Taken in the same sequence, the figures for `COC(=O)c1nc2oc1C13c4cc(ccc4O[C@@H]1Nc1c(-c4c(C)c(C)cc(C)c4C)cccc13)C[C@H](NC(=O)[C@@H](O)C(C)C)C(=O)N[C@H]2C(C)C` (stereo partly shown) [Example 42] were more than 1 µM and more than 1 µM.
Turning to `COC(=O)c1nc([C@@H](NC(=O)[C@H](Cc2ccccc2)NC(=O)[C@@H](O)C(C)C)C(C)C)oc1-c1c[nH]c2ccccc12` [Example 94], the IC50 in assay [1] (Homo sapiens, U-937) is more than 1 µM; in assay [2] (Homo sapiens), more than 1 µM.
As for `CC(C)[C@H](O)C(=O)N[C@H]1Cc2ccc3c(c2)C2(C4=C(C(=O)N5CCN=C5c5ccccc5)N=C(O4)[C@H](C(C)C)NC1=O)c1ccccc1N[C@H]2O3` (stereo partly shown) [Example 27], the IC50 in assay [1] (Homo sapiens, U-937, 48 h) is more than 1 µM; in assay [2] (Homo sapiens, A2058, 48 h), more than 1 µM.
Regarding `CC(C)[C@H](O)C(=O)N[C@H]1Cc2ccc3c(c2)C2(C4=C(c5nc(C(=O)O)co5)N=C(O4)[C@H](C(C)C)NC1=O)c1ccccc1N[C@H]2O3` (stereo partly shown) [Example 56], the half-inhibitory concentration (IC50) amounted to 0.736 µM in assay [1] (Homo sapiens, U-937) and 0.841 µM in assay [2] (Homo sapiens).
For `CC(C)[C@H](O)C(=O)N[C@H]1Cc2ccc3c(c2)C2(C4=C(c5nc(C(=O)OC(C)(C)C)co5)N=C(O4)[C@H](C(C)C)NC1=O)c1ccccc1N[C@H]2O3` (stereo partly shown) [Example 82], the IC50 in assay [1] (Homo sapiens, U-937, 48 h) came out at 0.066 µM; in assay [2] (Homo sapiens, A2058, 48 h), 0.126 µM.
As for `COC(=O)c1nc2oc1C13c4ccccc4N[C@H]1Oc1ccc(cc13)C[C@H](NC(=O)[C@@H](O)CC(C)C)C(=O)N[C@H]2C(C)C` (stereo partly shown) [Example 9], the IC50 is more than 1 µM in assay [1] (Homo sapiens, U-937, 48 h) and more than 1 µM in assay [2] (Homo sapiens, A2058, 48 h).
As for `COC(=O)c1nc2oc1[C@@]13c4ccccc4NC1Oc1ccc(cc13)C[C@H](NC(=O)[C@@H](O)c1ccccc1)C(=O)N[C@H]2C(C)C` (stereo partly shown) [Example 7], the concentration for half-maximal inhibition (IC50) was more than 1 µM in assay [1] (Homo sapiens, U-937, 48 h) and more than 1 µM in assay [2] (Homo sapiens, A2058, 48 h).
As for `COC(=O)c1nc(-c2nc3oc2C24c5ccccc5N[C@H]2Oc2ccc(cc24)CC(NC(=O)[C@@H](O)C(C)C)C(=O)N[C@H]3C(C)C)oc1C` (stereo partly shown) [Example 67], the IC50 in assay [1] (Homo sapiens, U-937, 48 h) was determined as 0.024 µM; in assay [2] (Homo sapiens, A2058, 48 h) it was 0.047 µM.
The matching figures for `CC(C)[C@H](O)C(=O)N[C@H]1Cc2ccc3c(c2)C2(C4=C(C(=O)NC5CCc6ccccc65)N=C(O4)[C@H](C(C)C)NC1=O)c1ccccc1N[C@H]2O3` (stereo partly shown) [Example 28]: more than 1 µM and more than 1 µM.
For the molecule `CCC(O)(CC)C(=O)N[C@H]1Cc2ccc3c(c2)C2(C4=C(c5nc(C(=O)OC)co5)N=C(O4)[C@H](C(C)C)NC1=O)c1ccccc1N[C@H]2O3` (stereo partly shown) [Example 47], the IC50 in assay [1] (Homo sapiens, U-937, 48 h) turned out to be 0.019 µM; in assay [2] (Homo sapiens, A2058, 48 h) it was 0.077 µM.
